Ends that are not written are not given here.
Columns and labels:
T cell clone VB57 = assay: Chromium release assay, peptide-sensitized targets lysed by T cell clone VB57; assay type: cell-based, human; conditions: for Peptide Concentration (nM), Amide, VB57: carboxyl terminal amide peptide
From the text: (§1) To take advantage of the increased immunogenicity of peptides 44 and 46, while maintaining the universal recognition of the native peptide, library-directed changes were made to peptides 44 and 46, substituting back the native amino acids. A series of 21 peptides were constructed based upon the sequence of the tetra-substituted peptides 44 and 46 in each of the carboxyl terminal amidated and free acid forms. The peptides contained single, double, or triple substitutions of amino acids of the native sequence at the positions indicated. These peptides were assayed utilizing a standard chromium release assay with the screening T cell clone, 3-3F4, and a representative T cell clone (VB57) from another individual expressing a different T cell receptor.

T cell clone 3-3F4 = assay: Chromium release assay, peptide-sensitized targets lysed by T cell clone 3-3F4; assay type: cell-based, human; conditions: for Peptide Concentration (nM), Amide, 3-3F4: carboxyl terminal amide peptide; for Peptide Concentration (nM), Amide, 3-3F4 / Peptide Concentration (nM), Free Acid, 3-3F4: chromium release, T cell clone 3-3F4; for Conc. (nM): concentration of peptide in which specific killing was between 15 and 30 percent: HLA A*0201-restricted EBVLCL targets, 3-3F4 effectors, E:T=5, 10-fold dilutions 500-0.00005 nM; for recognition by T cell clone 3-3F4 (in words): chromium release assay
Protocol: Nonamer peptides with the substitutions as shown at each position were synthesized as described in Example 1. […] Results of these assays are shown in the right-hand column of Table II, in terms of concentration of peptide (nM) in which specific killing was between 15 and 30 percent. Results presented are the average from at least three independent experiments carried out on different days using different batches of T cell […]. Peptides were tested using 10-fold dilutions, ranging from 500-0.00005 nM.
as §1

Substance	Peptide Concentration (nM), Amide, VB57 (T cell clone VB57)	Peptide Concentration (nM), Amide, 3-3F4 (T cell clone 3-3F4)	Peptide Concentration (nM), Free Acid, 3-3F4 (T cell clone 3-3F4)	Conc. (nM): concentration of peptide in which specific killing was between 15 and 30 percent (T cell clone 3-3F4)	further results
112N: nonamer NLVPMVASV amide, SEQ ID NO 45 (NLVPMVASV-NH2) [Peptide 112N]	0.5 nM	0.5 nM	–	–	–
113C: nonamer YLVPMVVTV, SEQ ID NO 60 (YLVPMVVTV-OH) [Peptide 113C]	–	–	>5 nM	–	–
47N: nonamer YLLPMVTPV amide, SEQ ID NO 23 (YLLPMVTPV-NH2) [Peptide 47N]	–	–	–	500 nM	recognition by T cell clone 3-3F4 (in words) (T cell clone 3-3F4): less active than the native sequence
110N: nonamer NLVPMVVTV amide, SEQ ID NO 41 (NLVPMVVTV-NH2) [Peptide 110N]	>5 nM	0.05 nM	–	–	–
124N: nonamer YLVPMVVSV amide, SEQ ID NO 69 (YLVPMVVSV-NH2) [Peptide 124N]	5 nM	0.5 nM	–	–	–
122C: nonamer YLLPMVTTV, SEQ ID NO 76 (YLLPMVTTV-OH) [Peptide 122C]	–	–	>5 nM	–	Peptide Concentration (nM), Free Acid, VB57 (T cell clone VB57): >5 nM
54N: nonamer YLLWMVTSV amide, SEQ ID NO 21 (YLLWMVTSV-NH2) [Peptide 54N]	–	–	–	0.5 nM	–
124C: nonamer YLVPMVVSV, SEQ ID NO 70 (YLVPMVVSV-OH) [Peptide 124C]	–	–	>5 nM	–	Peptide Concentration (nM), Free Acid, VB57 (T cell clone VB57): >5 nM
123C: nonamer YLLPMVASV, SEQ ID NO 78 (YLLPMVASV-OH) [Peptide 123C]	–	–	>5 nM	–	Peptide Concentration (nM), Free Acid, VB57 (T cell clone VB57): >5 nM
52N: nonamer YLLWMVVSV amide, SEQ ID NO 24 (YLLWMVVSV-NH2) [Peptide 52N]	–	–	–	500 nM	–
53N: nonamer YLLWMVVPV amide, SEQ ID NO 25 (YLLWMVVPV-NH2) [Peptide 53N]	–	–	–	500 nM	–
111N: nonamer NLVPMVTTV amide, SEQ ID NO 43 (NLVPMVTTV-NH2) [Peptide 111N]	>5 nM	0.05 nM	–	–	–
122N: nonamer YLLPMVTTV amide, SEQ ID NO 75 (YLLPMVTTV-NH2) [Peptide 122N]	>5 nM	5 nM	–	–	–
117N: nonamer NLLPMVTTV amide, SEQ ID NO 49 (NLLPMVTTV-NH2) [Peptide 117N]	>5 nM	0.05 nM	–	–	–
120N: nonamer NLVPMVTSV amide, SEQ ID NO 55 (NLVPMVTSV-NH2) [Peptide 120N]	>5 nM	0.05 nM	–	–	–
121C: nonamer YLLPMVVTV, SEQ ID NO 74 (YLLPMVVTV-OH) [Peptide 121C]	–	–	>5 nM	–	–
125N: nonamer YLVPMVTSV amide, SEQ ID NO 71 (YLVPMVTSV-NH2) [Peptide 125N]	>5 nM	0.05 nM	–	–	–
123N: nonamer YLLPMVASV amide, SEQ ID NO 77 (YLLPMVASV-NH2) [Peptide 123N]	0.5 nM	0.05 nM	–	–	–
116N: nonamer NLLPMVVTV amide, SEQ ID NO 47 (NLLPMVVTV-NH2) [Peptide 116N]	>5 nM	0.5 nM	–	–	–
194N: nonamer NLLPMVATV amide, SEQ ID NO 39 (NLLPMVATV-NH2) [Peptide 194N]	0.5 nM	0.05 nM	–	–	–
49N: nonamer YLLPYVVPV amide, SEQ ID NO 30 (YLLPYVVPV-NH2) [Peptide 49N]	–	–	–	>500 nM	–
195C: nonamer YLLPMVATV, SEQ ID NO 58 (YLLPMVATV-OH) [Peptide 195C]	–	–	>5 nM	–	Peptide Concentration (nM), Free Acid, VB57 (T cell clone VB57): >5 nM
58N: nonamer YLLWYVTSV amide, SEQ ID NO 27 (YLLWYVTSV-NH2) [Peptide 58N]	–	–	–	500 nM	–
126C: nonamer NLLPMVVSV, SEQ ID NO 66 (NLLPMVVSV-OH) [Peptide 126C]	–	–	5 nM	–	Peptide Concentration (nM), Free Acid, VB57 (T cell clone VB57): >5 nM
195N: nonamer YLLPMVATV amide, SEQ ID NO 57 (YLLPMVATV-NH2) [Peptide 195N]	0.5 nM	0.005 nM	–	–	–

Substance	Peptide Concentration (nM), Amide, VB57 (T cell clone VB57)	Peptide Concentration (nM), Amide, 3-3F4 (T cell clone 3-3F4)	Peptide Concentration (nM), Free Acid, 3-3F4 (T cell clone 3-3F4)	Conc. (nM): concentration of peptide in which specific killing was between 15 and 30 percent (T cell clone 3-3F4)	further results
125C: nonamer YLVPMVTSV, SEQ ID NO 72 (YLVPMVTSV-OH) [Peptide 125C]	–	–	>5 nM	–	Peptide Concentration (nM), Free Acid, VB57 (T cell clone VB57): >5 nM
114N: nonamer YLVPMVTTV amide, SEQ ID NO 61 (YLVPMVTTV-NH2) [Peptide 114N]	5 nM	0.05 nM	–	–	–
45N: nonamer YLLPMVVPV amide, SEQ ID NO 28 (YLLPMVVPV-NH2) [Peptide 45N]	–	–	–	>500 nM	recognition by T cell clone 3-3F4 (in words) (T cell clone 3-3F4): less active than the native sequence
127C: nonamer NLLPMVTSV, SEQ ID NO 68 (NLLPMVTSV-OH) [Peptide 127C]	–	–	5 nM	–	Peptide Concentration (nM), Free Acid, VB57 (T cell clone VB57): >5 nM
111C: nonamer NLVPMVTTV, SEQ ID NO 44 (HCMV vaccine peptide) [Peptide 111C]	–	–	0.05 nM	–	Peptide Concentration (nM), Free Acid, VB57 (T cell clone VB57): 5 nM; recognition by T cell clone 3-3F4 (in words) (T cell clone 3-3F4): equivalent to its amidated counterpart
113N: nonamer YLVPMVVTV amide, SEQ ID NO 59 (YLVPMVVTV-NH2) [Peptide 113N]	>5 nM	0.5 nM	–	–	–
55N: nonamer YLLWMVTPV amide, SEQ ID NO 26 (YLLWMVTPV-NH2) [Peptide 55N]	–	–	–	500 nM	–
56N: nonamer YLLWYVVSV amide, SEQ ID NO 22 (YLLWYVVSV-NH2) [Peptide 56N]	–	–	–	50 nM	–
119N: nonamer NLVPMVVSV amide, SEQ ID NO 53 (NLVPMVVSV-NH2) [Peptide 119N]	>5 nM	0.005 nM	–	–	–
110C: nonamer NLVPMVVTV, SEQ ID NO 42 (NLVPMVVTV-OH) [Peptide 110C]	–	–	0.5 nM	–	–
112C: nonamer NLVPMVASV, SEQ ID NO 46 (NLVPMVASV-OH) [Peptide 112C]	–	–	5 nM	–	Peptide Concentration (nM), Free Acid, VB57 (T cell clone VB57): 0.5 nM
120C: nonamer NLVPMVTSV, SEQ ID NO 56 (NLVPMVTSV-OH) [Peptide 120C]	–	–	5 nM	–	Peptide Concentration (nM), Free Acid, VB57 (T cell clone VB57): >5 nM
127N: nonamer NLLPMVTSV amide, SEQ ID NO 67 (NLLPMVTSV-NH2) [Peptide 127N]	>5 nM	0.05 nM	–	–	–
116C: nonamer NLLPMVVTV, SEQ ID NO 48 (NLLPMVVTV-OH) [Peptide 116C]	–	–	>5 nM	–	–
59N: nonamer YLLWYVTPV amide, SEQ ID NO 34 (YLLWYVTPV-NH2) [Peptide 59N]	–	–	–	>500 nM	–
194C: nonamer NLLPMVATV, SEQ ID NO 40 (NLLPMVATV-OH) [Peptide 194C]	–	–	>5 nM	–	Peptide Concentration (nM), Free Acid, VB57 (T cell clone VB57): >5 nM
A7N: native sequence NLVPMVATV with amidated carboxyl terminus, SEQ ID NO 18 (NLVPMVATV-NH2) [Peptide A7N]	–	–	–	0.5 nM	–
117C: nonamer NLLPMVTTV, SEQ ID NO 50 (NLLPMVTTV-OH) [Peptide 117C]	–	–	0.5 nM	–	Peptide Concentration (nM), Free Acid, VB57 (T cell clone VB57): 5 nM
48N: nonamer YLLPYVVSV amide, SEQ ID NO 29 (YLLPYVVSV-NH2) [Peptide 48N]	–	–	–	>500 nM	–
57N: nonamer YLLWYVVPV amide, SEQ ID NO 33 (YLLWYVVPV-NH2) [Peptide 57N]	–	–	–	>500 nM	–
51N: nonamer YLLPYVTPV amide, SEQ ID NO 32 (YLLPYVTPV-NH2) [Peptide 51N]	–	–	–	>500 nM	–
50N: nonamer YLLPYVTSV amide, SEQ ID NO 31 (YLLPYVTSV-NH2) [Peptide 50N]	–	–	–	>500 nM	–
119C: nonamer NLVPMVVSV, SEQ ID NO 54 (NLVPMVVSV-OH) [Peptide 119C]	–	–	>5 nM	–	Peptide Concentration (nM), Free Acid, VB57 (T cell clone VB57): >5 nM
114C: nonamer YLVPMVTTV, SEQ ID NO 62 (YLVPMVTTV-OH) [Peptide 114C]	–	–	0.5 nM	–	Peptide Concentration (nM), Free Acid, VB57 (T cell clone VB57): 5 nM

Reference: patent US6951651B2, “CTL epitope analogs” (priority 1999, dated 2005)
